Results as given in patent US11453683B1, “KRas G12D inhibitors” (Mirati Therapeutics, Inc., priority 2019, dated 2022).
pIC50: −log10 of the molar value.

The compounds below were run on KRas G12D-mediated phosphorylation of ERK (assay: Inhibition of KRas G12D-mediated phosphorylation of ERK in AGS cells). Conditions: Homo sapiens; AGS cells expressing G12D, 3 hours, phospho-ERK normalized to GAPDH.
Assay type: cell-based
Procedure, shortened: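 In-cell Western: p-ERK Thr202/Tyr204 signal over GAPDH, as % of DMSO control, with IC50 from a 4-parameter curve. AGS cells seeded 40,000/well for 12-14 h, exposed to compound 3 h at 0.5% DMSO final, then formaldehyde-fixed and methanol-permeabilized.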

SMILES | pIC50
CN(C)c1ccccc1-c1ncc2c(N3C[C@H]4CC[C@@H](C3)N4)nc(OCC34CCCN3CCC4)nc2c1F [Example 296, 2-(4-((1R,5S)-3,8-diazabicyclo[3.2.1]octan-3-yl)-8-fluoro-2-((hexahydro-1H-pyrrolizin-7a-yl)methoxy)pyrido[4,3-d]pyrimidin-7-yl)-N,N-dimethylaniline] | 5.07
Fc1c(-c2ccccc2C2CC2)ncc2c(N3C[C@H]4CC[C@@H](C3)N4)nc(OCC34CCCN3CCC4)nc12 [Example 297, 4-((1R,5S)-3,8-diazabicyclo[3.2.1]octan-3-yl)-7-(2-cyclopropylphenyl)-8-fluoro-2-((hexahydro-1H-pyrrolizin-7a-yl)methoxy)pyrido[4,3-d]pyrimidine] | 5.18
CC(C)c1c(Cl)cccc1-c1ncc2c(N3C[C@H]4CC[C@@H](C3)N4)nc(OCC34CCCN3CCC4)nc2c1F [Example 298, 4-((1R,5S)-3,8-diazabicyclo[3.2.1]octan-3-yl)-7-(3-chloro-2-isopropylphenyl)-8-fluoro-2-((hexahydro-1H-pyrrolizin-7a-yl)methoxy)pyrido[4,3-d]pyrimidine] | 5.91
CC(C)c1c(F)cccc1-c1ncc2c(N3C[C@H]4CC[C@@H](C3)N4)nc(OCC34CCCN3CCC4)nc2c1F [Example 299, 4-((1R,5S)-3,8-diazabicyclo[3.2.1]octan-3-yl)-8-fluoro-7-(3-fluoro-2-isopropylphenyl)-2-((hexahydro-1H-pyrrolizin-7a-yl)methoxy)pyrido[4,3-d]pyrimidine] | < 5.26
Cc1cccc(-c2ncc3c(N4C[C@H]5CC[C@@H](C4)N5)nc(OCC45CCCN4CCC5)nc3c2F)c1C(C)C [Example 301, 4-((1R,5S)-3,8-diazabicyclo[3.2.1]octan-3-yl)-8-fluoro-2-((hexahydro-1H-pyrrolizin-7a-yl)methoxy)-7-(2-isopropyl-3-methylphenyl)pyrido[4,3-d]pyrimidine] | 5.50
Fc1cccc(-c2ncc3c(N4C[C@H]5CC[C@@H](C4)N5)nc(OCC45CCCN4CCC5)nc3c2F)c1OC(F)F [Example 302, 4-((1R,5S)-3,8-diazabicyclo[3.2.1]octan-3-yl)-7-(2-(difluoromethoxy)-3-fluorophenyl)-8-fluoro-2-((hexahydro-1H-pyrrolizin-7a-yl)methoxy)pyrido[4,3-d]pyrimidine] | 5.70
Fc1cccc(-c2ncc3c(N4C[C@H]5CC[C@@H](C4)N5)nc(OCC45CCCN4CCC5)nc3c2F)c1C1CC1 [Example 304, 4-((1R,5S)-3,8-diazabicyclo[3.2.1]octan-3-yl)-7-(2-cyclopropyl-3-fluorophenyl)-8-fluoro-2-((hexahydro-1H-pyrrolizin-7a-yl)methoxy)pyrido[4,3-d]pyrimidine] | 5.85
CN(C)Cc1ccc(COCCNC(=O)O[C@@H]2C[C@@H](COc3nc(N4C[C@H]5CC[C@@H](C4)N5)c4cnc(-c5cccc6cccc(Cl)c56)c(F)c4n3)N(C)C2)cc1 [Example 308, (3R,5S)-5-(((4-((1R,5S)-3,8-diazabicyclo[3.2.1]octan-3-yl)-7-(8-chloronaphthalen-1-yl)-8-fluoropyrido[4,3-d]pyrimidin-2-yl)oxy)methyl)-1-methylpyrrolidin-3-yl (2-((4-((dimethylamino)methyl)benzyl)oxy)ethyl)carbamate] | < 5.26
CCc1c(Cl)cccc1-c1ncc2c(N3C[C@H]4CC[C@@H](C3)N4)nc(OCC34CCCN3CCC4)nc2c1F [Example 312, 4-((1R,5S)-3,8-diazabicyclo[3.2.1]octan-3-yl)-7-(3-chloro-2-ethylphenyl)-8-fluoro-2-((hexahydro-1H-pyrrolizin-7a-yl)methoxy)pyrido[4,3-d]pyrimidine] | 5.73
CCc1c(F)ccc2cc(O)cc(-c3ncc4c(N5C[C@H]6CC[C@@H](C5)N6)nc(OCC56CCCN5CCC6)nc4c3F)c12 [Example 314, 4-(4-((1R,5S)-3,8-diazabicyclo[3.2.1]octan-3-yl)-8-fluoro-2-((hexahydro-1H-pyrrolizin-7a-yl)methoxy)pyrido[4,3-d]pyrimidin-7-yl)-5-ethyl-6-fluoronaphthalen-2-ol] | 8.43
Cc1ccc2cccc(-c3ncc4c(N5C[C@H]6CC[C@@H](C5)N6)nc(OC[C@@H]5CCCN5C)nc4c3F)c2c1 [Example 321, 4-((1R,5S)-3,8-diazabicyclo[3.2.1]octan-3-yl)-8-fluoro-7-(7-methylnaphthalen-1-yl)-2-(((S)-1-methylpyrrolidin-2-yl)methoxy)pyrido[4,3-d]pyrimidine] | < 4.78
Fc1c(-c2cccc(Cl)c2C2CC2)ncc2c(N3C[C@H]4CC[C@@H](C3)N4)nc(OCC34CCCN3CCC4)nc12 [Example 322, 4-((1R,5S)-3,8-diazabicyclo[3.2.1]octan-3-yl)-7-(3-chloro-2-cyclopropylphenyl)-8-fluoro-2-((tetrahydro-1H-pyrrolizin-7a(5H)-yl)methoxy)pyrido[4,3-d]pyrimidine] | 6.18
Fc1c(-c2cccc(Cl)c2C(F)(F)F)ncc2c(N3C[C@H]4CC[C@@H](C3)N4)nc(OCC34CCCN3CCC4)nc12 [Example 328, 4-((1R,5S)-3,8-diazabicyclo[3.2.1]octan-3-yl)-7-(3-chloro-2-(trifluoromethyl)phenyl)-8-fluoro-2-((tetrahydro-1H-pyrrolizin-7a(5H)-yl)methoxy)pyrido[4,3-d]pyrimidine] | 6.05
Cc1ccc2[nH]ncc2c1-c1ncc2c(N3C[C@H]4CC[C@@H](C3)N4)nc(OCC34CCCN3CCC4)nc2c1F [Example 332, 4-((1R,5S)-3,8-diazabicyclo[3.2.1]octan-3-yl)-8-fluoro-7-(5-methyl-1H-indazol-4-yl)-2-((tetrahydro-1H-pyrrolizin-7a(5H)-yl)methoxy)pyrido[4,3-d]pyrimidine] | < 4.78
Cc1cccc2cccc(-c3ncc4c(N5C[C@H]6CC[C@@H](C5)N6)nc(OCC56CCCN5CCC6)nc4c3F)c12 [Example 334, 4-((1R,5S)-3,8-diazabicyclo[3.2.1]octan-3-yl)-8-fluoro-7-(8-methylnaphthalen-1-yl)-2-((tetrahydro-1H-pyrrolizin-7a(5H)-yl)methoxy)pyrido[4,3-d]pyrimidine] | 5.54
Fc1c(-c2cccc3cccc(C4CC4)c23)ncc2c(N3C[C@H]4CC[C@@H](C3)N4)nc(OCC34CCCN3CCC4)nc12 [Example 335, 4-((1R,5S)-3,8-diazabicyclo[3.2.1]octan-3-yl)-7-(8-cyclopropylnaphthalen-1-yl)-8-fluoro-2-((tetrahydro-1H-pyrrolizin-7a(5H)-yl)methoxy)pyrido[4,3-d]pyrimidine] | 4.98
CN1CCC[C@H]1COc1nc(N2CC3CCC(C2)N3)c2cnc(-c3c(Cl)c(O)cc4ccccc34)c(F)c2n1 [Example 337, 4-(4-(3,8-diazabicyclo[3.2.1]octan-3-yl)-8-fluoro-2-(((S)-1-methylpyrrolidin-2-yl)methoxy)pyrido[4,3-d]pyrimidin-7-yl)-3-chloronaphthalen-2-ol] | 5.79
N#CC[C@@H]1C[C@@H]2CN(c3nc(OCC45CCCN4CCC5)nc4c(F)c(-c5cc(O)cc6ccccc56)ncc34)C[C@H]1N2 [Example 338, 2-((1R,5S,6S)-3-(8-fluoro-7-(3-hydroxynaphthalen-1-yl)-2-((tetrahydro-1H-pyrrolizin-7a(5H)-yl)methoxy)pyrido[4,3-d]pyrimidin-4-yl)-3,8-diazabicyclo[3.2.1]octan-6-yl)acetonitrile] | < 4.78
